# Patent US6355799B1, “Substituted benzene compounds, process for their preparation, and herbicidal and defoliant compositions containing them” (ISK Americas Incorporated, priority 1997, dated 2002)
# How the values were obtained:
# Type in all cases: in vivo
# [1] = system: redroot pigweed (Amaranthus retroflexus, AMARE); experiment: Pre-emerge test, greenhouse herbicide activity screening; conditions: pre-emerge, 14 days after application, rating scale 0-100
# Method in brief: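 Plants grown in 10 cm pots of sandy loam mix received acetone-dissolved compounds through a moving flat-fan nozzle. Doses ranged from 15 to 1000 g ai/ha. Pre-emerge pots were seeded one day earlier, post-emerge pots 8–21 days earlier. Fourteen days on, each pot was graded 0–100 for damage.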
# [2] = system: upland rice (Oryza sp., var. Tebonnet, RICE); experiment: Pre-emerge test, crop safety; conditions: pre-emerge, 14 days after application, rating scale 0-100
# Method in brief: (§1)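 Applied at 15–1000 g ai/ha from acetone in 187 l/ha spray volume. Post-emergence applications included 0.25% v/v non-ionic surfactant and reached plants sown 8–21 days before. Pre-emergence applications were incorporated by surface watering. Efficacy or crop damage was rated on a 0–100 scale after 14 days.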
# [3] = system: field corn (Zea mays L., var. Dekalb 535, CORN); experiment: Pre-emerge test, crop safety; conditions: pre-emerge, 14 days after application, rating scale 0-100
# Method in brief: as §1
# [4] = system: lambsquarters (Chenopodium album, CHEAL); experiment: Post-emerge test, greenhouse herbicide activity screening; conditions: post-emerge, 14 days after application, rating scale 0-100
# Method in brief: (§2)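 Herbicidal damage is scored 0 (none) to 100 (complete plant death) two weeks after a simulated field spray. Rates span 15–1000 g ai/ha, delivered in acetone at 187 l/ha. For post-emergence treatments, plants have 2–3 leaves and the spray carries 0.25% v/v non-ionic surfactant.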
# [5] = system: barnyardgrass (Echinochloa crus-galli, ECHCG); experiment: as above; conditions: post-emerge, 14 days after application, rating scale 0-100
# Method in brief: as §2
# [6] = system: green foxtail (Setaria viridis, SETVI); experiment: as above; conditions: post-emerge, 14 days after application, rating scale 0-100
# Method in brief: as §2
# [7] = system: johnsongrass (Sorghum halepense, SORHA); experiment: as above; conditions: post-emerge, 14 days after application, rating scale 0-100
# Method in brief: as §2
# [8] = system: ivyleaf morningglory (Ipomoea hederacea, IPOHE); experiment: as above; conditions: post-emerge, 14 days after application, rating scale 0-100
# Method in brief: as §2
# [9] = system: large crabgrass (Digitaria sanguinalis, DIGSA); experiment: as above; conditions: post-emerge, 14 days after application, rating scale 0-100
# Method in brief: as §2
# [10] = system: sicklepod (Cassia obtusifolia, CASOB); experiment: as above; conditions: post-emerge, 14 days after application, rating scale 0-100
# Method in brief: as §2
# [11] = system: redroot pigweed (Amaranthus retroflexus, AMARE); experiment: as above; conditions: post-emerge, 14 days after application
# Method in brief: as §2
# [12] = system: velvetleaf (Abutilon theophrasti, ABUTH); experiment: as above; conditions: post-emerge, 14 days after application, rating scale 0-100
# Method in brief: as §2
# [13] = system: upland rice (Oryza sp., var. Tebonnet, RICE); experiment: Post-emerge test, crop safety; conditions: post-emerge, 14 days after application, rating scale 0-100
# Method in brief: (§3)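 Sandy loam pots; pre-emerge: sown 1 d pre-spray, surface-watered after, then bottom-watered. Post-emerge: sown 8–21 d before, 2–3 leaf stage, + 0.25% v/v NIS, bottom-watered. Acetone, 187 l/ha track spray, 15–1000 g ai/ha. 0–100 injury score, day 14.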
# [14] = system: field corn (Zea mays L., var. Dekalb 535, CORN); experiment: Post-emerge test, crop safety; conditions: post-emerge, 14 days after application, rating scale 0-100
# Method in brief: as §3
# [15] = system: lambsquarters (Chenopodium album, CHEAL); experiment: Pre-emerge test, greenhouse herbicide activity screening; conditions: pre-emerge, 14 days after application, rating scale 0-100
# Method in brief: as §3
# [16] = system: barnyardgrass (Echinochloa crus-galli, ECHCG); experiment: as above; conditions: pre-emerge, 14 days after application, rating scale 0-100
# Method in brief: as §3
# [17] = system: green foxtail (Setaria viridis, SETVI); experiment: as above; conditions: pre-emerge, 14 days after application, rating scale 0-100
# Method in brief: as §3
# [18] = system: johnsongrass (Sorghum halepense, SORHA); experiment: as above; conditions: pre-emerge, 14 days after application, rating scale 0-100
# Method in brief: as §3
# [19] = system: ivyleaf morningglory (Ipomoea hederacea, IPOHE); experiment: as above; conditions: pre-emerge, 14 days after application, rating scale 0-100
# Method in brief: as §3
# [20] = system: large crabgrass (Digitaria sanguinalis, DIGSA); experiment: as above; conditions: pre-emerge, 14 days after application, rating scale 0-100
# Method in brief: as §3
# [21] = system: sicklepod (Cassia obtusifolia, CASOB); experiment: as above; conditions: pre-emerge, 14 days after application, rating scale 0-100
# Method in brief: as §3
# [22] = system: velvetleaf (Abutilon theophrasti, ABUTH); experiment: as above; conditions: pre-emerge, 14 days after application, rating scale 0-100
# Method in brief: as §3
smiles,measurement,setting,value
COc1c(Cl)cc(F)c(-n2c(=O)cc(C(F)(F)F)n(C)c2=O)c1NN=C(C)C [15-12],phytotoxicity rating AMARE,[1]; 63 g ai/ha,100
same,phytotoxicity rating AMARE,[1]; 250 g ai/ha,100
same,phytotoxicity rating RICE,[2]; 63 g ai/ha,99
same,phytotoxicity rating RICE,[2]; 250 g ai/ha,100
same,phytotoxicity rating CORN,[3]; 63 g ai/ha,100
same,phytotoxicity rating CORN,[3]; 250 g ai/ha,100
same,Post-emerge Herbicidal Activity CHEAL (phytotoxicity rating),[4]; 63 g ai/ha,100
same,Post-emerge Herbicidal Activity CHEAL (phytotoxicity rating),[4]; 250 g ai/ha,100
same,Post-emerge Herbicidal Activity ECHCG (phytotoxicity rating),[5]; 63 g ai/ha,70
same,Post-emerge Herbicidal Activity ECHCG (phytotoxicity rating),[5]; 250 g ai/ha,100
same,Post-emerge Herbicidal Activity SETVI (phytotoxicity rating),[6]; 63 g ai/ha,70
same,Post-emerge Herbicidal Activity SETVI (phytotoxicity rating),[6]; 250 g ai/ha,100
same,Post-emerge Herbicidal Activity SORHA (phytotoxicity rating),[7]; 63 g ai/ha,80
same,Post-emerge Herbicidal Activity SORHA (phytotoxicity rating),[7]; 250 g ai/ha,99
same,Post-emerge Herbicidal Activity IPOHE (phytotoxicity rating),[8]; 63 g ai/ha,100
same,Post-emerge Herbicidal Activity IPOHE (phytotoxicity rating),[8]; 250 g ai/ha,100
same,Post-emerge Herbicidal Activity DIGSA (phytotoxicity rating),[9]; 63 g ai/ha,95
same,Post-emerge Herbicidal Activity DIGSA (phytotoxicity rating),[9]; 250 g ai/ha,100
same,Post-emerge Herbicidal Activity CASOB (phytotoxicity rating),[10]; 63 g ai/ha,90
same,Post-emerge Herbicidal Activity CASOB (phytotoxicity rating),[10]; 250 g ai/ha,100
same,Post-emerge Herbicidal Activity AMARE (phytotoxicity rating),"[11]; 63 g ai/ha, rating scale 0-100 (0 no damage, 100 complete death)",95
same,Post-emerge Herbicidal Activity AMARE (phytotoxicity rating),"[11]; 250 g ai/ha, rating scale 0-100",100
same,Post-emerge Herbicidal Activity ABUTH (phytotoxicity rating),[12]; 63 g ai/ha,100
same,Post-emerge Herbicidal Activity ABUTH (phytotoxicity rating),[12]; 250 g ai/ha,100
same,Post-emerge Herbicidal Activity RICE (crop damage rating),[13]; 63 g ai/ha,80
same,Post-emerge Herbicidal Activity RICE (crop damage rating),[13]; 250 g ai/ha,99
same,Post-emerge Herbicidal Activity CORN (crop damage rating),[14]; 63 g ai/ha,80
same,Post-emerge Herbicidal Activity CORN (crop damage rating),[14]; 250 g ai/ha,95
same,phytotoxicity rating CHEAL,[15]; 63 g ai/ha,100
same,phytotoxicity rating CHEAL,[15]; 250 g ai/ha,100
same,phytotoxicity rating ECHCG,[16]; 63 g ai/ha,100
same,phytotoxicity rating ECHCG,[16]; 250 g ai/ha,100
same,phytotoxicity rating SETVI,[17]; 63 g ai/ha,100
same,phytotoxicity rating SETVI,[17]; 250 g ai/ha,100
same,phytotoxicity rating SORHA,[18]; 63 g ai/ha,100
same,phytotoxicity rating SORHA,[18]; 250 g ai/ha,100
same,phytotoxicity rating IPOHE,[19]; 63 g ai/ha,100
same,phytotoxicity rating IPOHE,[19]; 250 g ai/ha,100
same,phytotoxicity rating DIGSA,[20]; 63 g ai/ha,100
same,phytotoxicity rating DIGSA,[20]; 250 g ai/ha,100
same,phytotoxicity rating CASOB,[21]; 63 g ai/ha,100
same,phytotoxicity rating CASOB,[21]; 250 g ai/ha,100
same,phytotoxicity rating ABUTH,[22]; 63 g ai/ha,100
same,phytotoxicity rating ABUTH,[22]; 250 g ai/ha,100
